Measured values published in the NIST ThermoML archive (doi:10.1021/je200616t).
Where “and” joins values, the source holds several entries; their conditions need not be identical. Identical values can stand only once. Numbers after ± are expanded uncertainties.

What was measured:
[1] = xn = mol fraction of the nth substance listed; details: 298.15 K, 101 kPa, Liquid, MP522 conductivity instrument
[2] = 298.15 K; 101 kPa; Liquid; MP522 conductivity instrument

CCCC[n+]1ccccc1.O=S(=O)([N-]S(=O)(=O)C(F)(F)F)C(F)(F)F [1-butylpyridinium bis[(trifluoromethyl)sulfonyl]imide] + CO
[1]
Details	electrical conductivity [S/m]
x1 = 0.00227	0.302 ± 0.006
x1 = 0.00676	0.679 ± 0.014
x1 = 0.0112	0.961 ± 0.019
x1 = 0.0179	1.29 ± 0.026
x1 = 0.023	1.5 ± 0.03
x1 = 0.0297	1.71 ± 0.034
x1 = 0.0427	1.99 ± 0.04
x1 = 0.0507	2.12 ± 0.042
x1 = 0.0696	2.28 ± 0.046
x1 = 0.092	2.35 ± 0.047
x1 = 0.1676	2.15 ± 0.043
x1 = 0.2137	1.96 ± 0.039
x1 = 0.2653	1.72 ± 0.034
x1 = 0.2984	1.58 ± 0.032
x1 = 0.3655	1.33 ± 0.027
x1 = 0.4009	1.22 ± 0.024
x1 = 0.4397	1.11 ± 0.022
x1 = 0.5194	0.91 ± 0.018
x1 = 0.561	0.825 ± 0.017
x1 = 0.6014	0.749 ± 0.015
x1 = 0.6433	0.681 ± 0.014
x1 = 0.7132	0.581 ± 0.012
x1 = 0.7592	0.523 ± 0.01
x1 = 0.8182	0.456 ± 0.009
x1 = 0.8544	0.421 ± 0.008
x1 = 0.8988	0.381 ± 0.008
x1 = 0.9425	0.346 ± 0.007
x1 = 1	0.308 ± 0.006

CCCCC[n+]1ccccc1.O=S(=O)([N-]S(=O)(=O)C(F)(F)F)C(F)(F)F [1-pentylpyridinium bis(trifluoromethylsulfonyl)amide]
Details	electrical conductivity [S/m]
[2]	0.216 ± 0.004

CCCC[n+]1ccc(C)cc1.O=S(=O)([N-]S(=O)(=O)C(F)(F)F)C(F)(F)F
Details	electrical conductivity
[2]	0.332 S/m and 0.333 S/m

CC[n+]1ccccc1.O=S(=O)([N-]S(=O)(=O)C(F)(F)F)C(F)(F)F [1-ethylpyridinium bis[(trifluoromethyl)sulfonyl]imide] + CCO
[1]
Details	electrical conductivity [S/m]
x1 = 0.0428	0.803 ± 0.016
x1 = 0.0551	0.956 ± 0.019
x1 = 0.0755	1.16 ± 0.023
x1 = 0.0881	1.26 ± 0.025
x1 = 0.1135	1.43 ± 0.029
x1 = 0.1366	1.54 ± 0.031
x1 = 0.1789	1.67 ± 0.033
x1 = 0.2096	1.71 ± 0.034
x1 = 0.234	1.73 ± 0.035
x1 = 0.2537	1.73 ± 0.035
x1 = 0.2781	1.72 ± 0.034
x1 = 0.3029	1.7 ± 0.034
x1 = 0.3612	1.64 ± 0.033
x1 = 0.4404	1.51 ± 0.03
x1 = 0.4844	1.44 ± 0.029
x1 = 0.5537	1.31 ± 0.03
x1 = 0.5948	1.24 ± 0.025
x1 = 0.6418	1.16 ± 0.023
x1 = 0.7011	1.05 ± 0.021
x1 = 0.76	0.954 ± 0.019
x1 = 0.8228	0.858 ± 0.017
x1 = 0.8845	0.769 ± 0.015
x1 = 1	0.629 ± 0.013

CCCC[n+]1ccccc1.O=S(=O)([N-]S(=O)(=O)C(F)(F)F)C(F)(F)F [1-butylpyridinium bis[(trifluoromethyl)sulfonyl]imide] + CCO
[1]
Details	electrical conductivity [S/m]
x1 = 0.02	0.389 ± 0.008
x1 = 0.0313	0.543 ± 0.011
x1 = 0.0415	0.66 ± 0.013
x1 = 0.0601	0.83 ± 0.017
x1 = 0.0722	0.915 ± 0.018
x1 = 0.103	1.06 ± 0.021
x1 = 0.1448	1.16 ± 0.023
x1 = 0.1659	1.18 ± 0.024
x1 = 0.184	1.19 ± 0.024
x1 = 0.196	1.19 ± 0.024
x1 = 0.2208	1.18 ± 0.024
x1 = 0.2693	1.14 ± 0.023
x1 = 0.3122	1.09 ± 0.022
x1 = 0.362	1.02 ± 0.02
x1 = 0.424	0.926 ± 0.019
x1 = 0.4616	0.872 ± 0.017
x1 = 0.5169	0.793 ± 0.016
x1 = 0.5597	0.735 ± 0.015
x1 = 0.6073	0.674 ± 0.013
x1 = 0.6706	0.598 ± 0.012
x1 = 0.7463	0.516 ± 0.01
x1 = 0.8415	0.426 ± 0.009
x1 = 0.8925	0.383 ± 0.008
x1 = 1	0.307 ± 0.006

CCCCC[n+]1ccccc1.O=S(=O)([N-]S(=O)(=O)C(F)(F)F)C(F)(F)F [1-pentylpyridinium bis(trifluoromethylsulfonyl)amide] + CO
[1]
Details	electrical conductivity [S/m]
x1 = 0.00257	0.323 ± 0.006
x1 = 0.00682	0.658 ± 0.013
x1 = 0.012	0.966 ± 0.019
x1 = 0.0185	1.26 ± 0.025
x1 = 0.0256	1.5 ± 0.03
x1 = 0.0325	1.67 ± 0.033
x1 = 0.0398	1.82 ± 0.036
x1 = 0.0546	1.97 ± 0.039
x1 = 0.0734	2.1 ± 0.042
x1 = 0.0854	2.11 ± 0.042
x1 = 0.1093	2.05 ± 0.041
x1 = 0.1709	1.82 ± 0.036
x1 = 0.2113	1.61 ± 0.032
x1 = 0.3105	1.22 ± 0.024
x1 = 0.3653	1.03 ± 0.021
x1 = 0.4197	0.886 ± 0.018
x1 = 0.4604	0.788 ± 0.016
x1 = 0.5266	0.652 ± 0.013
x1 = 0.5689	0.585 ± 0.012
x1 = 0.6107	0.522 ± 0.01
x1 = 0.6447	0.479 ± 0.01
x1 = 0.7183	0.401 ± 0.008
x1 = 0.7639	0.361 ± 0.007
x1 = 0.8278	0.313 ± 0.006
x1 = 0.8938	0.27 ± 0.005
x1 = 0.9397	0.246 ± 0.005
x1 = 1	0.216 ± 0.004

CC[n+]1ccccc1.O=S(=O)([N-]S(=O)(=O)C(F)(F)F)C(F)(F)F [1-ethylpyridinium bis[(trifluoromethyl)sulfonyl]imide]
Details	electrical conductivity
[2]	0.63 S/m and 0.629 S/m

CCCC[n+]1ccc(C)cc1.O=S(=O)([N-]S(=O)(=O)C(F)(F)F)C(F)(F)F + CO
[1]
Details	electrical conductivity [S/m]
x1 = 0.00761	0.7 ± 0.014
x1 = 0.00979	0.836 ± 0.017
x1 = 0.0118	0.951 ± 0.019
x1 = 0.0142	1.07 ± 0.022
x1 = 0.0176	1.24 ± 0.025
x1 = 0.021	1.38 ± 0.028
x1 = 0.0297	1.69 ± 0.034
x1 = 0.0366	1.86 ± 0.037
x1 = 0.0544	2.15 ± 0.043
x1 = 0.0653	2.25 ± 0.045
x1 = 0.0711	2.28 ± 0.046
x1 = 0.0773	2.32 ± 0.046
x1 = 0.1083	2.34 ± 0.047
x1 = 0.1388	2.25 ± 0.045
x1 = 0.1724	2.11 ± 0.042
x1 = 0.1977	2 ± 0.04
x1 = 0.2256	1.87 ± 0.037
x1 = 0.2662	1.68 ± 0.034
x1 = 0.3346	1.4 ± 0.028
x1 = 0.3989	1.18 ± 0.024
x1 = 0.481	1.02 ± 0.02
x1 = 0.5543	0.861 ± 0.017
x1 = 0.6316	0.719 ± 0.014
x1 = 0.714	0.599 ± 0.012
x1 = 0.7932	0.504 ± 0.01
x1 = 0.8534	0.444 ± 0.009
x1 = 0.9551	0.362 ± 0.007
x1 = 1	0.332 ± 0.007
